In patent US4517196A, “Tricyclic thiazolyloxamic acids and their derivatives, their preparation, and therapeutic agents containing these compounds” (BASF Aktiengesellschaft, priority 1981, dated 1985):

Tested on: passive cutaneous anaphylaxis
Assay: antiallergic action, passive cutaneous anaphylaxis (PCA) in rats, oral
Assay type: in vivo, rat
Details: for ED50: Rattus norvegicus, read-out: Inhibition of PCA, ED 50%; for times more effective than the comparative compound V1: administered orally; for Inhibition of PCA, relative effectiveness: relative to comparative compound V1 (1.00)
Experimental: The antiallergic action was tested against passive cutaneous anaphylaxis in rats.
Narcotized male rats (weighing from 100 to 140 g) are sensitized by administration of an intradermal injection (shaved skin) of 0.1 ml of an ovalbumin antiserum. After a sensitization period of about 48 hours, treatment is carried out by administering various dosages (10 animals/dose) of the test substances intraperitoneally or orally. 15 and 20 minutes after treatment, an anitgen/Evans blue mixture (10 mg/kg of ovalbumin in 2% strength Evans blue solution) is injected intravenously into the experimental animals. 30 minutes later, the animals are killed, and the back skin is peeled off and the diameter of the circular blue area on the inner surface is measured. The size of the colored spot in untreated control animals may be standardized. Antiallergic substances reduce the diameter of the colored spots, their reduction being dependent on the dose. The ED 50% is the dose which produces a 50% reduction in the diameter of the colored spot in comparison with control animals which have not been treated with the drug.

[1] = oral administration, rats, dose giving 50% reduction in diameter of colored spot vs untreated controls

Row | SMILES | ED50 [1] [mg/kg] | times more effective than the comparative compound V1 [times] | Inhibition of PCA, relative effectiveness (oral administration, rats) | oral effectiveness in doses up to 100 mg/kg (oral, doses up to 100 mg/kg, commercial preparation Intal) | Inhibition of PCA, ED 50% [1] [mg/kg]
1 | O=C(O)C(=O)Nc1nc2c(s1)Cc1ccccc1-2 [Example 4, N-(Indeno[1,2-d]thiazol-2-yl)-oxamic acid] | 1.3 | 6.6 | 6.61 |  | 
2 | CCOC(=O)C(=O)Nc1nc2c(s1)C(=O)c1ccccc1-2 [Example 2, Ethyl N-(8-oxoindeno[1,2-d]thiazol-2-yl)-oxamate] | 1.95 | 4.4 | 4.41 |  | 
3 | O=C(O)c1cc(=O)c2c(OCC(O)COc3cccc4oc(C(=O)O)cc(=O)c34)cccc2o1 [cromolyn, reference compound] | 100 |  |  | orally ineffective | 
4 | O=C(O)C(=O)Nc1nc2ccccc2s1 [Example V1, N-benzothiazol-2-yl oxamate, reference compound] |  |  | 1.00 |  | > 8.60
5 | CCOC(=O)C(=O)Nc1nc2c(s1)Cc1ccccc1-2 [Example 1, Ethyl N-(indeno[1,2-d]thiazol-2-yl)-oxamate] | 1.48 |  | 5.81 |  | 
